# Tests used:
# [1] = system: Trypanosoma cruzi; assay: Antimicrobial activity against Trypanosoma cruzi Y infected in rat L6E9 myoblasts assessed as inhibition of [5,6-3H]uracil incorporation after 3 days postinfection by scintillation counter; assay type: functional, organism-based
# [2] = biological target: Phosphodiesterase 4 (Homo sapiens, UniProt P27815+Q08499+Q07343+Q08493); assay: Inhibition of human PDE4 after 30 mins; assay type: protein assay
# [3] = biological target: T1, Cyclic nucleotide specific phosphodiesterase (Trypanosoma cruzi, UniProt Q53I59); assay: Inhibition of Trypanosoma cruzi Y PDEC after 30 mins
# T1 sequence (Q53I59 whole entry): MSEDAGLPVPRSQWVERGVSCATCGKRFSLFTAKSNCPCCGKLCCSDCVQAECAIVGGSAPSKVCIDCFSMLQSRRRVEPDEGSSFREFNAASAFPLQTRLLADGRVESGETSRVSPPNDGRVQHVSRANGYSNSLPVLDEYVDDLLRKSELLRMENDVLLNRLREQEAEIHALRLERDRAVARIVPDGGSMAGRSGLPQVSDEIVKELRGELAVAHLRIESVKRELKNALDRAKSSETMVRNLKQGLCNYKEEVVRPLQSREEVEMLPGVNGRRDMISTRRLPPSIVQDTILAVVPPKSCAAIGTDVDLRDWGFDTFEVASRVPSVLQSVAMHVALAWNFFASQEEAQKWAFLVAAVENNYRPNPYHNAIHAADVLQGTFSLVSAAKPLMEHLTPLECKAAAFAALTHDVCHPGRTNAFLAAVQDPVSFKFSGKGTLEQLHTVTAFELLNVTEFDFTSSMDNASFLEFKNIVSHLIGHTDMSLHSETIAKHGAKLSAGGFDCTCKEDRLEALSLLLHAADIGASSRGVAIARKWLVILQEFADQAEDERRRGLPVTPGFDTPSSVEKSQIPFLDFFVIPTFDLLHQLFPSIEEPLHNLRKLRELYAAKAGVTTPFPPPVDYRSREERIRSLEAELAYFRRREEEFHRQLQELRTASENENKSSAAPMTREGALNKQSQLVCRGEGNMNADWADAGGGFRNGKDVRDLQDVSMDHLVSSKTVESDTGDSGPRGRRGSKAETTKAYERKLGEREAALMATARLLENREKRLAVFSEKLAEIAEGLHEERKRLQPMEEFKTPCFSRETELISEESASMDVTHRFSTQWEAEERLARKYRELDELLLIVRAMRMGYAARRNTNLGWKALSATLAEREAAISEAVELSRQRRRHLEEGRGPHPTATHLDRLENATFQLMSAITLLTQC
# [4] = Cytotoxicity against rat L6E9 myoblasts at 1 to 25 uM
Structure (SMILES),IC50 [1] [µM],IC50 [2] [µM],IC50 [3] [µM],Activity [4]
CCCC(=O)c1ccc(OC)c(OC2CCOC2)c1 (configuration not stated),68,0.43,> 10,Non-toxic
C=CCn1c(=S)sc2c(Sc3nnc(-c4ccco4)o3)ncnc21,5.4,–,7,Non-toxic
COC(OC)c1ccc(C#N)c(SCC(=O)c2ccc(Cl)cc2)n1,> 10,–,> 10,Non-toxic
COc1ccc(C=O)cc1OC1CCOC1 (configuration not stated),122,–,> 10,Non-toxic
CCCCC(=O)c1ccc(OC2CCN(C(=O)OC(C)(C)C)CC2)c(OC)c1,3.8,93,3.1,Non-toxic
CCCC(=O)c1ccc(OC(F)F)c(Oc2ccccn2)c1,10.3,40,3.5,Non-toxic
CCCCC(=O)c1ccc(OC)c(OC2CCOCC2)c1,2.1,0.72,> 10,Non-toxic
O=C(CCc1ccccc1)c1ccc(OC(F)F)c(OC2CCOC2)c1 (configuration not stated),3.1,0.18,2.5,Non-toxic
Fc1ccccc1Nc1ncnc2c1nnn2Cc1ccccc1,> 10,–,> 10,Non-toxic
O=C(CCCc1ccccc1)c1ccc(OC(F)F)c(OC2CCOC2)c1 (configuration not stated),3.1,0.626,3.2,Non-toxic
CCCC(c1ccc(Oc2ccccn2)c(OC)c1)c1cnc2ccccc2c1 (configuration not stated),1.9,6,3.3,Non-toxic
NNC(=O)c1csc(COc2ccc(C3SCCS3)cc2)n1,> 10,–,> 10,Non-toxic
CCCC(O)(C(=O)c1ccc(OC(F)F)c(Oc2ccccn2)c1)c1cnc2ccccc2c1 (configuration not stated),3.8,6,3.9,Non-toxic
O=C(CCCc1ccccc1)c1ccc(OC(F)F)c(OC(F)F)c1,7.7,44,2.5,Non-toxic
O=C(SCc1ccco1)c1csc(C2COc3ccccc3O2)n1 (configuration not stated),25,–,> 10,Non-toxic
COc1ccc(C(=O)CCc2ccccc2)cc1OC1CCOC1 (configuration not stated),5.6,2.3,> 10,Non-toxic
O=S(=O)(Cc1ccco1)Cc1nc(-c2ccccc2)cs1,25,–,3.8,Non-toxic
O=C1c2ccccc2S(=O)(=O)N1Cc1nc2ccccc2s1,3.3,–,5.5,Non-toxic
O=C1CC(Sc2ccc(Cl)cc2)C(=O)N1Cc1ccncc1 (configuration not stated),> 10,–,10,Non-toxic
O=C(COc1ncnc2cc(Cl)ccc12)Nc1ccccc1Cl,> 10,–,> 10,Non-toxic
CCCC(=O)c1ccc(OC2CCOC2)c(OC)c1 (configuration not stated),3.7,24,5.6,Non-toxic
O=C(CN1CCc2ccccc21)Nc1nnc(-c2cccs2)s1,> 10,–,> 10,Non-toxic
O=C(NCc1csc(-c2cccs2)n1)C1=Cc2ccccc2OC1 [SCR 01311],25,–,10,Non-toxic
O=Cc1ccc(OC(F)F)c(O)c1,11,–,> 10,Non-toxic
O=S(=O)(Cc1noc(-c2cccs2)n1)c1ccc(F)cc1,> 10,–,> 10,Non-toxic
CCOC(=O)c1nc(C)nc(Sc2nnc(-c3ccccc3)[nH]2)c1C,6.4,–,4.6,Non-toxic
CC(C)(C)c1cc2ncnc(NNC(=O)c3cccs3)c2s1 [GK03671],4.8,–,6.3,Non-toxic

# — ChEMBL document CHEMBL1671721, “Chemical validation of phosphodiesterase C as a chemotherapeutic target in Trypanosoma cruzi, the etiological agent of Chagas' disease” (Antimicrob Agents Chemother, 2010)
